Experimental data published in ChEMBL document CHEMBL5058649, “Data for DCP probe BAY 1816032” (2022).
Activity calls are given as the source filed them. No cut-off for these calls is given here.

Columns and labels:
[1] = target: Rho-associated protein kinase 2 (Homo sapiens) (UniProt O75116); assay: ROCK2 DiscoveRx kinase panel; settings: Compound concentration 1.0 uM
[2] = target: Insulin-like growth factor 1 receptor (Homo sapiens) (UniProt P08069); assay: IGF1R DiscoveRx kinase panel; settings: Compound concentration 1.0 uM
[3] = target: Tyrosine-protein kinase Mer (Homo sapiens) (UniProt Q12866); assay: MERTK DiscoveRx kinase panel; settings: Compound concentration 1.0 uM
[4] = target: Serine/threonine-protein kinase Nek2 (Homo sapiens) (UniProt P51955); assay: NEK2 DiscoveRx kinase panel; settings: Compound concentration 1.0 uM
[5] = target: Tyrosine-protein kinase ZAP-70 (Homo sapiens) (UniProt P43403); assay: ZAP70 DiscoveRx kinase panel; settings: Compound concentration 1.0 uM
[6] = target: Rho-associated protein kinase 1 (Homo sapiens) (UniProt Q13464); assay: ROCK1 DiscoveRx kinase panel; settings: Compound concentration 1.0 uM
MDA-MB-436 = assay: MDA-MB-436 cell line Proliferation assay; assay type: functional, Homo sapiens; settings: time 4 day
[7] = target: L-type calcium channel, benzothiazepine site (Cav1.2 alpha-1C) (Homo sapiens, UniProt Q13936); assay: Inhibition of Calcium Channel L-Type, Benzothiazepine at 10 µM in the Eurofins-Panlabs radioligand binding assay (Eurofins_assay_214510); parameters: ligand concentration 2 nM, non-specific ligand with concentration 10 µM Diltiazem, incubation time 3h, incubation temperature 4 °C; settings: male, Wistar, rat, rat whole brain preparation, probe [3H] Diltiazem; compound concentration 10 uM; target entry is the homologue from another species
[8] = target: AP2-associated protein kinase 1 (Homo sapiens) (UniProt Q2M2I8); assay: AAK1 DiscoveRx kinase panel; settings: Compound concentration 1.0 uM
[9] = target: Ribosomal protein S6 kinase alpha-3 (Homo sapiens) (UniProt P51812); assay: RSK2(Kin.Dom.1-N-terminal) DiscoveRx kinase panel; settings: Compound concentration 1.0 uM
[10] = target: 5-hydroxytryptamine receptor 2C (Homo sapiens) (UniProt P28335); settings: Compound concentration 10.0 uM
[11] = target: Alpha-1D adrenergic receptor (Homo sapiens, UniProt P25100); assay: GPCRScan assay: inhibition of Alpha1D; parameters: radioligand conc. used [nm] 0.3 – 1.0, parental cells stable
[12] = target: Phosphatidylinositol 4-phosphate 5-kinase type-1 alpha (Homo sapiens) (UniProt Q99755); assay: PIP5K1A DiscoveRx kinase panel; settings: Compound concentration 1.0 uM
[13] = target: Serine/threonine-protein kinase TNNI3K (Homo sapiens) (UniProt Q59H18); assay: TNNI3K DiscoveRx kinase panel; settings: Compound concentration 1.0 uM
[14] = target: Type-1 angiotensin II receptor (Homo sapiens) (UniProt P30556); assay: Angiotensin AT1 Eurofins-Panlabs radioligand binding assay; settings: Compound concentration 10.0 uM
[15] = PHKG2 DiscoveRx kinase panel; settings: Homo sapiens; Compound concentration 1.0 uM
[16] = target: Serine/threonine-protein kinase PAK 4 (Homo sapiens) (UniProt O96013); assay: PAK4 DiscoveRx kinase panel; settings: Compound concentration 1.0 uM
[17] = target: Mitotic checkpoint serine/threonine-protein kinase BUB1 (Homo sapiens, UniProt O43683); assay: BUB1 biochemical assay (low ATP)
[18] = target: Tyrosine-protein kinase SYK (Homo sapiens) (UniProt P43405); assay: SYK DiscoveRx kinase panel; settings: Compound concentration 1.0 uM
[19] = target: Peripheral plasma membrane protein CASK (Homo sapiens) (UniProt O14936); assay: CASK DiscoveRx kinase panel; settings: Compound concentration 1.0 uM
[20] = target: Beta-1 adrenergic receptor (Homo sapiens) (UniProt P08588); settings: Compound concentration 10.0 uM
[21] = target: Casein kinase I isoform alpha (Homo sapiens) (UniProt P48729); assay: CSNK1A1 DiscoveRx kinase panel; settings: Compound concentration 1.0 uM
[22] = target: Calcium/calmodulin-dependent protein kinase type 1D (Homo sapiens) (UniProt Q8IU85); assay: CAMK1D DiscoveRx kinase panel; settings: Compound concentration 1.0 uM
[23] = target: Protein-tyrosine kinase 6 (Homo sapiens) (UniProt Q13882); assay: BRK DiscoveRx kinase panel; settings: Compound concentration 1.0 uM
[24] = target: Mitogen-activated protein kinase kinase kinase kinase 4 (Homo sapiens) (UniProt O95819); assay: MAP4K4 DiscoveRx kinase panel; settings: Compound concentration 1.0 uM
[25] = target: D(4) dopamine receptor (Homo sapiens) (UniProt P21917); settings: Compound concentration 10.0 uM
[26] = target: Serine/threonine-protein kinase PAK 5 (Homo sapiens) (UniProt Q9P286); assay: PAK7 DiscoveRx kinase panel; settings: Compound concentration 1.0 uM
[27] = target: cAMP-dependent protein kinase catalytic subunit alpha (Homo sapiens) (UniProt P17612); assay: PKAC-alpha DiscoveRx kinase panel; settings: Compound concentration 1.0 uM
[28] = target: Histamine H1 receptor (Homo sapiens) (UniProt P35367); settings: Compound concentration 10.0 uM
[29] = target: Cannabinoid receptor 2 (Homo sapiens) (UniProt P34972); settings: Compound concentration 10.0 uM
[30] = target: Alpha-2C adrenergic receptor (Homo sapiens, UniProt P18825); assay: GPCRScan assay: inhibition of Alpha2C; parameters: radioligand conc. used [nm] 0.5 – 1.0, parental cells stable MDCK
[31] = target: Serine/threonine-protein kinase PAK 1 (Homo sapiens) (UniProt Q13153); assay: PAK1 DiscoveRx kinase panel; settings: Compound concentration 1.0 uM
[32] = target: Cyclin-dependent kinase 9 (Homo sapiens) (UniProt P50750); assay: CDK9 DiscoveRx kinase panel; settings: Compound concentration 1.0 uM
[33] = target: Cyclin-dependent kinase 19 (Homo sapiens) (UniProt Q9BWU1); assay: CDK11 DiscoveRx kinase panel; settings: Compound concentration 1.0 uM
MDA-MB-453 = assay: MDA-MB-453 cell line Proliferation assay; assay type: functional, Homo sapiens; settings: time 4 day
[34] = target: Dual specificity testis-specific protein kinase 1 (Homo sapiens) (UniProt Q15569); assay: TESK1 DiscoveRx kinase panel; settings: Compound concentration 1.0 uM
[35] = target: MAP kinase-activated protein kinase 5 (Homo sapiens) (UniProt Q8IW41); assay: MAPKAPK5 DiscoveRx kinase panel; settings: Compound concentration 1.0 uM
[36] = target: Dual specificity tyrosine-phosphorylation-regulated kinase 1B (Homo sapiens, UniProt Q9Y463); assay: DYRK1B DiscoveRx kinase panel
[37] = target: cAMP-dependent protein kinase catalytic subunit beta (Homo sapiens) (UniProt P22694); assay: PKAC-beta DiscoveRx kinase panel; settings: Compound concentration 1.0 uM
[38] = target: Cyclin-dependent kinase 4/cyclin D1 (Homo sapiens) (UniProt P11802+P24385); assay: CDK4-cyclinD1 DiscoveRx kinase panel; assay type: protein-complex assay; settings: Compound concentration 1.0 uM
[39] = target: Aurora kinase A (Homo sapiens) (UniProt O14965); assay: AURKA DiscoveRx kinase panel; settings: Compound concentration 1.0 uM
[40] = target: Mitogen-activated protein kinase kinase kinase 9 (Homo sapiens) (UniProt P80192); assay: MLK1 DiscoveRx kinase panel; settings: Compound concentration 1.0 uM
[41] = target: Citron Rho-interacting kinase (Homo sapiens) (UniProt O14578); assay: CIT DiscoveRx kinase panel; settings: Compound concentration 1.0 uM
[42] = target: Serine/threonine-protein kinase pim-2 (Homo sapiens) (UniProt Q9P1W9); assay: PIM2 DiscoveRx kinase panel; settings: Compound concentration 1.0 uM
[43] = target: Ribosomal protein S6 kinase alpha-2 (Homo sapiens) (UniProt Q15349); assay: RSK3(Kin.Dom.1-N-terminal) DiscoveRx kinase panel; settings: Compound concentration 1.0 uM
[44] = target: Tyrosine-protein kinase FRK (Homo sapiens) (UniProt P42685); assay: FRK DiscoveRx kinase panel; settings: Compound concentration 1.0 uM
[45] = target: Serine/threonine-protein kinase tousled-like 1 (Homo sapiens) (UniProt Q9UKI8); assay: TLK1 DiscoveRx kinase panel; settings: Compound concentration 1.0 uM
[46] = target: Tyrosine-protein kinase JAK1 (Homo sapiens) (UniProt P23458); assay: JAK1(JH1domain-catalytic) DiscoveRx kinase panel; settings: Compound concentration 1.0 uM

Sequence of Alpha-2C adrenergic receptor (P18825 whole entry): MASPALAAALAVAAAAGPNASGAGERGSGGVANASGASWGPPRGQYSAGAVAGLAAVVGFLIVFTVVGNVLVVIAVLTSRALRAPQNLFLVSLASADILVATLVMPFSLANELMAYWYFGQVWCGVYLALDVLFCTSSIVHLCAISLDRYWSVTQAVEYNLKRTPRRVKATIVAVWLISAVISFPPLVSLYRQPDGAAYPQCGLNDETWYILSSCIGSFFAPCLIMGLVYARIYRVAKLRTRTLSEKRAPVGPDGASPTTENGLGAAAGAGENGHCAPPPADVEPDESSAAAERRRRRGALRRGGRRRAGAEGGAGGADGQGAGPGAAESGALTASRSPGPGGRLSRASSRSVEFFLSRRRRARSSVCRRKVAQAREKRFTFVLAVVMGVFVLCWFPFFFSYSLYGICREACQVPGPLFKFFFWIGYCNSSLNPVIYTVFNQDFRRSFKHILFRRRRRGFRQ
Sequence of Alpha-1D adrenergic receptor (P25100 whole entry): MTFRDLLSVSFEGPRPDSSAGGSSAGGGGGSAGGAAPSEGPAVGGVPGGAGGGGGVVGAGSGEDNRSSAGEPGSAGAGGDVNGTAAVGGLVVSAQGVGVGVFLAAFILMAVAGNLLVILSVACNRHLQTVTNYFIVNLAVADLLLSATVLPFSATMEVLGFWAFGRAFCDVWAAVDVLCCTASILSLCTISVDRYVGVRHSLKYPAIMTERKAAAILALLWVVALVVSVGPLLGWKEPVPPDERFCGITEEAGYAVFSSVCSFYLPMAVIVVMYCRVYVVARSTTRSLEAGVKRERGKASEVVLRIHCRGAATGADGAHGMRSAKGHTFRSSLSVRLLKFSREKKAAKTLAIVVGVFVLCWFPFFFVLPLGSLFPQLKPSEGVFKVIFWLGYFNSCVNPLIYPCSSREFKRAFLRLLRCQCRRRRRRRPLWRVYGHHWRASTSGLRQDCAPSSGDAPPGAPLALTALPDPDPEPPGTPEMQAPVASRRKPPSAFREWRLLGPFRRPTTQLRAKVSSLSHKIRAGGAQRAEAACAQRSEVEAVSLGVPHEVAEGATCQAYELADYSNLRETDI
Sequence of Type-1 angiotensin II receptor (Homo sapiens) (P30556 whole entry): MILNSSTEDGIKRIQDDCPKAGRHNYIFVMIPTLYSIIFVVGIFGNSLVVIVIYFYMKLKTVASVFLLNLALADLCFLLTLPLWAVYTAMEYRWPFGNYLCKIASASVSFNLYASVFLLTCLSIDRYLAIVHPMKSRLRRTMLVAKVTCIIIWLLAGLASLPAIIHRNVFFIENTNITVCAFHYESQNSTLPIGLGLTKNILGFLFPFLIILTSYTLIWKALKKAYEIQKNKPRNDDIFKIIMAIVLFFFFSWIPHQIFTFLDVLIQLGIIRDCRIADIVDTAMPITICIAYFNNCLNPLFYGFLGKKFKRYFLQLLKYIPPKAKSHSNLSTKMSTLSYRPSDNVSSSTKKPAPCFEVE
Sequence of 5-hydroxytryptamine receptor 2C (Homo sapiens) (P28335 whole entry): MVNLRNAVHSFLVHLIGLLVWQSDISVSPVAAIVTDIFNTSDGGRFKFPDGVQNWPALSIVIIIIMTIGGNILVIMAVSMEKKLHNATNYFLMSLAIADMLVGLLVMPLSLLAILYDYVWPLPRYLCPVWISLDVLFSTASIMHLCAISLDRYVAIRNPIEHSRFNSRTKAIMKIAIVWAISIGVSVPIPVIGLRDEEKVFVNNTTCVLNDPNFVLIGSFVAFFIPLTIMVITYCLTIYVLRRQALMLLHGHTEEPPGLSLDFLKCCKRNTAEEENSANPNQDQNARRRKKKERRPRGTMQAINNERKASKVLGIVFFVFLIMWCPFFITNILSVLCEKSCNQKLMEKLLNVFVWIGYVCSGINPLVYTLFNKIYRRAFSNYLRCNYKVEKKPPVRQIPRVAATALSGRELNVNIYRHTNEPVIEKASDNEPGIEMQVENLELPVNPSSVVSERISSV
Sequence of Casein kinase I isoform alpha (Homo sapiens) (P48729 2-337 limits assumed): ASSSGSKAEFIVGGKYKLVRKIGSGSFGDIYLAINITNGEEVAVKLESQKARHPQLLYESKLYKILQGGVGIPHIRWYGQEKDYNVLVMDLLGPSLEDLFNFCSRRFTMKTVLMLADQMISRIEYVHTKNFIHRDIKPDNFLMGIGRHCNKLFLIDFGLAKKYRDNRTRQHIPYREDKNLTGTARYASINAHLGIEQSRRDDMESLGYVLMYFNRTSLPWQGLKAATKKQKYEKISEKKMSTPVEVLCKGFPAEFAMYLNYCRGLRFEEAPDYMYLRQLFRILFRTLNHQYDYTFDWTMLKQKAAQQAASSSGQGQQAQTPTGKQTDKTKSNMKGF
Sequence of Beta-1 adrenergic receptor (Homo sapiens) (P08588 whole entry, looked up, canonical isoform): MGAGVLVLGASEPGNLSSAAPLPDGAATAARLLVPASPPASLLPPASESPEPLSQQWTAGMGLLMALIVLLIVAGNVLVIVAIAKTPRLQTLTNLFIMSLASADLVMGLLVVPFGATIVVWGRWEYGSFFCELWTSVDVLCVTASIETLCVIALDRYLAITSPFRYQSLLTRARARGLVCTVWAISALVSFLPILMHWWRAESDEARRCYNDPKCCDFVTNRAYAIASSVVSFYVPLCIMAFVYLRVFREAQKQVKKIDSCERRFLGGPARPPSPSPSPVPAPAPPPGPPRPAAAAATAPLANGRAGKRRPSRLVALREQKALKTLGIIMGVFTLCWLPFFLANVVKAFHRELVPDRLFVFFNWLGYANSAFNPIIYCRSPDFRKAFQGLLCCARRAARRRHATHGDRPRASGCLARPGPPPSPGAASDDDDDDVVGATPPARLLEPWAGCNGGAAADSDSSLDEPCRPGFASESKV
Sequence of Histamine H1 receptor (Homo sapiens) (P35367 whole entry): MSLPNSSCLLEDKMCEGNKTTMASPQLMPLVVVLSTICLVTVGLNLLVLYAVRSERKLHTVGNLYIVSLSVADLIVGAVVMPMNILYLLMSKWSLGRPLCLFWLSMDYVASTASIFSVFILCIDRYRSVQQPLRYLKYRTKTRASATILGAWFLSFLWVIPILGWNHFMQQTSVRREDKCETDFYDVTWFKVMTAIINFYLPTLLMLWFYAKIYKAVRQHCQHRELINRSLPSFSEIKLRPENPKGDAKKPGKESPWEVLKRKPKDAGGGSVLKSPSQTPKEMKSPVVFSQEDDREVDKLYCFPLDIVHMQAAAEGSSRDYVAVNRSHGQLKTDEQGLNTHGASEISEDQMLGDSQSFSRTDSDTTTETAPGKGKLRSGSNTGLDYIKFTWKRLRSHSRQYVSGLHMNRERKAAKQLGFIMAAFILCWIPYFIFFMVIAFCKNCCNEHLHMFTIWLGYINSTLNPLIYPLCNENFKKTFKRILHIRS
Sequence of Dual specificity testis-specific protein kinase 1 (Homo sapiens) (Q15569 whole entry, looked up): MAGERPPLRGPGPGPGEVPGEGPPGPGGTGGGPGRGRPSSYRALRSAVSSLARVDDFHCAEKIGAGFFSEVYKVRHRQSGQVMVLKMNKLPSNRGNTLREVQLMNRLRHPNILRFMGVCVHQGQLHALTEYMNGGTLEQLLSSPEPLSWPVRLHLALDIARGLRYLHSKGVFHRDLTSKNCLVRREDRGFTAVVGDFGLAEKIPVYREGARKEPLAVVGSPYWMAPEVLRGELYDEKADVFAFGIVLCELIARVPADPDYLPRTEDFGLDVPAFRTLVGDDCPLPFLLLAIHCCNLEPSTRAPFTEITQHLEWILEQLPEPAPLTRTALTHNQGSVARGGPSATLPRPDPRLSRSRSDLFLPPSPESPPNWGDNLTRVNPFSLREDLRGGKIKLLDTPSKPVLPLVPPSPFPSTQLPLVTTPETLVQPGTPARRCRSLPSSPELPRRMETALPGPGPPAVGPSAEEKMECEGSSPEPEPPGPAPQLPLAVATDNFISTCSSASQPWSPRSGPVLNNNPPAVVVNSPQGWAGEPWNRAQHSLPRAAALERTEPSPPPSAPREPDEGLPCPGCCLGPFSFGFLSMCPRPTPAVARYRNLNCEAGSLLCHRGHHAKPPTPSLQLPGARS
Sequence of Ribosomal protein S6 kinase alpha-3 (Homo sapiens) (P51812 whole entry): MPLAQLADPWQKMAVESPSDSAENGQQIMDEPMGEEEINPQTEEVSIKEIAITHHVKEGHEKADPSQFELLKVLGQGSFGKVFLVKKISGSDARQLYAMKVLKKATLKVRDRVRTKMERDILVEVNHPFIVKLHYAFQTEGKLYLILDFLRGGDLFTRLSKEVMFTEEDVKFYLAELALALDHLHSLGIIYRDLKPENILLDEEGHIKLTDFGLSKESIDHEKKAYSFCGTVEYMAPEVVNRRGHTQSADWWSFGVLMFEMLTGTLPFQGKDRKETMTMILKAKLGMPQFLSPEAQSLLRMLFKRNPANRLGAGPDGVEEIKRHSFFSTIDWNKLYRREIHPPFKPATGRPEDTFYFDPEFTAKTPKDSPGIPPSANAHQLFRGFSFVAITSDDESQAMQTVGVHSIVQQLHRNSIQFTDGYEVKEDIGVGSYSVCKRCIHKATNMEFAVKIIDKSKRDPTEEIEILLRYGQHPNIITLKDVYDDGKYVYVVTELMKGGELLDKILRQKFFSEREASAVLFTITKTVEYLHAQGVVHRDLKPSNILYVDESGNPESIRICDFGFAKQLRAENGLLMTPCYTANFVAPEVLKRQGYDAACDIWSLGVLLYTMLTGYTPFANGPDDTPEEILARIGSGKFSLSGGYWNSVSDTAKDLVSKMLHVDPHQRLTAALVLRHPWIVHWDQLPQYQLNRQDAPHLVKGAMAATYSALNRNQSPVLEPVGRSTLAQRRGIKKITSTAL
Sequence of Serine/threonine-protein kinase Nek2 (Homo sapiens) (P51955 whole entry): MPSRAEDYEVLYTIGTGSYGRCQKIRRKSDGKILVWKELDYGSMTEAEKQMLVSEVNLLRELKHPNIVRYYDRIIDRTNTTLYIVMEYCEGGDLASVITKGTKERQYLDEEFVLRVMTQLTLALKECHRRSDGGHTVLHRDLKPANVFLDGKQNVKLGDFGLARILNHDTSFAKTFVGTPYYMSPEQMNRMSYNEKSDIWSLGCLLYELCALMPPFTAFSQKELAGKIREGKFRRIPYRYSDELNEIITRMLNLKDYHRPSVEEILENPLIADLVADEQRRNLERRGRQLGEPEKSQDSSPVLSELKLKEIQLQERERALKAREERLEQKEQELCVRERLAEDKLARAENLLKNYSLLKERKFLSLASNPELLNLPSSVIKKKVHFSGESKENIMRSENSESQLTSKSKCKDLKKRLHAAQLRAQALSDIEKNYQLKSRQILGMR

COc1cnccc1Nc1nc(-c2nn(Cc3c(F)cc(OCCO)cc3F)c3ccccc23)ncc1OC
residual activity [1]: 100%
residual activity [2]: 97%
residual activity [3]: 83%
residual activity [4]: 90%
residual activity [5]: 100%
residual activity [6]: 100%
Cell Proliferation IC50 (MDA-MB-436): 1.2 µM
inhibition at 3 h, 10 µM [7]: -10% (not active)
residual activity [8]: 100%
residual activity [9]: 100%
inhibition [10]: 21%
Ki [11]: > 10 µM
pKi [11]: < 5
residual activity [12]: 83%
residual activity [13]: 97%
inhibition [14]: -2%
residual activity [15]: 98%
residual activity [16]: 82%
IC50 [17]: 0.0065 µM (active)
residual activity [18]: 100%
residual activity [19]: 78%
inhibition [20]: 4%
residual activity [21]: 99%
residual activity [22]: 83%
residual activity [23]: 91%
residual activity [24]: 62%
inhibition [25]: 1.38%
residual activity [26]: 85%
residual activity [27]: 100%
inhibition [28]: 12%
inhibition [29]: 31%
Ki [30]: > 10 µM
pKi [30]: < 5
residual activity [31]: 100%
residual activity [32]: 99%
residual activity [33]: 78%
Cell Proliferation IC50 (MDA-MB-453): 1.2 µM
residual activity [34]: 57%
residual activity [35]: 100%
Kd [36]: > 30 µM
residual activity ([36]; Compound concentration 1.0 uM): 6.7%
residual activity [37]: 100%
residual activity [38]: 100%
residual activity [39]: 100%
residual activity [40]: 92%
residual activity [41]: 52%
residual activity [42]: 100%
residual activity [43]: 80%
residual activity [44]: 85%
residual activity [45]: 85%
residual activity [46]: 90%
